Source: patent US8877802B2 (priority 2005, dated 2014)
Where two headings read alike, the source gives them in different places.

Legend:
[1] = system: DA-depleted DAT-KO (DDD) mice; assay: Catalepsy test (horizontal bar) in DDD mice; conditions: for Catalepsy (sec) 2 h: as E4, 1 h after second dose
[2] = system: DA-depleted DAT-KO (DDD) mice; assay: Grasping test of muscular rigidity in DDD mice; conditions: as E1; 1 h after second dose
[3] = system: DA-depleted DAT-KO (DDD) mice; assay: Akinesia test (forelimb steps in 30 s) in DDD mice; conditions: as E7; 1 h after second dose
[4] = system: DA-depleted DAT-KO (DDD) mice; conditions: mouse, in vivo
WT mice [5] = assay: Neurotoxic regimen of (±)-MDMA; conditions: (±)-MDMA 4 injections of 20 mg/kg IP, every 2 h; WT mice n=7
DAT-KO mice [6] = assay: Neurotoxic regimen of (±)-MDMA, striatal tissue DA and 5-HT 7 d later; conditions: (±)-MDMA 4 injections of 20 mg/kg IP, every 2 h, DAT-KO mice n=7
DAT-KO mice [7] = assay: In vivo microdialysis of striatal extracellular DA
Experimental: (§1) Neurochemical assessments. Striatal tissue contents of DA and frontal cortical tissue levels of NE were assessed using HPLC-EC (high performance liquid chromatography with electrochemical detection) as described. In vivo microdialysis measurements of striatal extracellular DA levels in freely moving mice were performed at least 24 h after implantation of a microdialysis probe as described previously. Dialysate samples were assayed for DA using HPLC-EC.

[8] = system: DA-depleted DAT-KO (DDD) mice; assay: Locomotor activity (forward locomotion, distance traveled) in DDD mice; conditions: for effect in tests of forward locomotion or akinesia and rigidity: NE- and 5-HT-related drugs, data not shown
[9] = system: DA-depleted DAT-KO (DDD) mice; assay: Ptosis score in DDD mice; conditions: cumulative dosing, scale 0-4, n=4
haloperidol-treated rats = haloperidol-treated rats [84]; cited from earlier work
6-OH-DA-lesioned rats = 6-OH-DA-lesioned rats [85]; cited from earlier work
MPTP-treated monkeys = MPTP-treated monkeys [64]; cited from earlier work
DD mice = conditions: [76], cited from earlier work
TA1 receptor = TA1 receptor (Rattus norvegicus, UniProt Q923Y9); conditions: reported in [42]; cited from earlier work
Chain of TA1 receptor (Q923Y9 whole entry): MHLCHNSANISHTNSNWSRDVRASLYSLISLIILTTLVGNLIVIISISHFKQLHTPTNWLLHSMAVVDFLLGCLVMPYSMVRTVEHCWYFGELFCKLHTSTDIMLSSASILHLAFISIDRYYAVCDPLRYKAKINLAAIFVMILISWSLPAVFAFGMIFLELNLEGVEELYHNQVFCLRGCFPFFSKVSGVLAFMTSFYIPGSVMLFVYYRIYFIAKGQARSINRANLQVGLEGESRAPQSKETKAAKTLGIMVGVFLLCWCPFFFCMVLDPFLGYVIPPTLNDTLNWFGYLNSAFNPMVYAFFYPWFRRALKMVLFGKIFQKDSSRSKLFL

DAT-KO mice [10] = assay: Striatal tissue DA by HPLC-EC after αMT; format: in vivo; conditions: αMT 250 mg/kg IP
Experimental: as §1

WT mice [11] = assay: Striatal tissue DA by HPLC-EC after αMT; format: in vivo; conditions: αMT 250 mg/kg IP; 4 h
Experimental: as §1

DAT-KO mice [12] = assay: Frontal cortex tissue NE by HPLC-EC after αMT; format: in vivo; conditions: αMT 250 mg/kg IP; 8 h after treatment
Experimental: as §1

WT mice [13] = assay: Frontal cortex tissue NE by HPLC-EC after αMT; format: in vivo; conditions: αMT 250 mg/kg IP; 8 h after treatment
Experimental: as §1

WT mice [14] = assay: In vivo microdialysis of striatal extracellular DA; conditions: αMT 250 mg/kg IP; freely moving WT mice
Experimental: as §1

DAT-KO mice [15] = conditions: 100 mg/kg IP once every 3 d for 40 wk; cited from earlier work
DAT-KO mice [16] = assay: Locomotor activity after αMT
WT mice [17] = assay: Locomotor activity after αMT; conditions: αMT 250 mg/kg IP
DAT-KO mice [18] = assay: Behavioral tests after αMT (akinesia, catalepsy, grasping, bracing, tremor, ptosis, righting reflex); conditions: αMT 250 mg/kg IP
[19] = DDD mice, drug 1 h after αMT 250 mg/kg IP

Q: Which “Catalepsy (sec) 2 h” value [1] does the source give for `CCNC(C)Cc1cccc(C(F)(F)F)c1` (racemic) [(±)-Fenfluramine] here?
A: 138 ± 28 s

Q: And the “Grasping test (sec) 2 h” value [2]?
A: 8 ± 4 s

Q: What about the “Akinesia (steps) 2 h” value [3] of the same compound?
A: 32 ± 6 steps

Q: For `CC(N)Cc1ccc2c(c1)OCO2.Cl` (racemic) [(±)-MDA, (±)-3,4-methylenedioxyamphetamine HCl], which “manifestations of akinesia and rigidity” value [4] is on record?
A: effective in reducing manifestations of akinesia and rigidity

Q: Which results are given for `CNC(C)Cc1ccc2c(c1)OCO2.Cl` (racemic) [(±)-MDMA, (±)-3,4-methylenedioxymethamphetamine HCl]?
A: manifestations of akinesia and rigidity [4]: effective in reducing manifestations of akinesia and rigidity; lethality (WT mice [5]): lethality of all treated WT mice; striatal tissue 5-HT (DAT-KO mice [6]): 0.40±0.02 ng/mg tissue; striatal tissue DA (DAT-KO mice [6]): 0.58±0.04 ng/mg tissue

Q: For `CNC(C)Cc1ccc2c(c1)OCO2.Cl` (single isomer, unassigned; (+)) [(+)-MDMA, (+)-3,4-methylenedioxymethamphetamine HCl], which “striatal extracellular DA in DDD mice” value (DAT-KO mice [7]; (+)-MDMA 100 mg/kg IP after αMT, in vivo microdialysis) is on record?
A: did not produce any detectable increase in striatal extracellular DA

Q: And the “forward locomotion (distance traveled)” value ([8]; mouse, in vivo)?
A: able to induce significant forward locomotion

Q: What about the “potentiation of locomotor-stimulating effect of subthreshold L-DOPA/carbidopa” value ([8]; mouse, in vivo) of the same compound?
A: potent synergistic effect

Q: And the forward locomotion ([8]; mouse, in vivo, HCl)?
A: induced significant forward locomotion

Q: Which “Catalepsy (sec) 2 h” value [1] does the source give for `CCNC(C)Cc1cccc(C(F)(F)F)c1` (single isomer, unassigned; (-)) [(−)-Fenfluramine] here?
A: 104 ± 31 s

Q: What about the “Grasping test (sec) 2 h” value [2] of the same compound?
A: 4 ± 1 s

Q: And the “Akinesia (steps) 2 h” value [3]?
A: 28 ± 5 steps

Q: For `CC(N)Cc1ccc(Cl)cc1` (stereo not shown) [4-chloro-amphetamine], which “manifestations of akinesia and rigidity” value [4] is on record?
A: effective in reducing manifestations of akinesia and rigidity

Q: With `COc1ccc2[nH]cc(CCN(C)C)c2c1` [5-methoxy-N,N-dimethyltryptamine] as the compound, how does the “effect in tests of forward locomotion or akinesia and rigidity” value (“effect in tests” below) ([8]; DDD mice) read?
A: none were effective

Q: Which “effect in tests” value ([8]; DDD mice) does the source give for `Cc1ccc2[nH]cc(CCN(C)C)c2c1` [5-methyl-N,N-dimethyltryptamine] here?
A: none were effective

Q: With `CCN[C@@H](C)Cc1cccc(C(F)(F)F)c1` [(+)-Fenfluramine] as the compound, how does the “Catalepsy (sec) 2 h” value [1] read?
A: 113 ± 23 s

Q: What about the “Grasping test (sec) 2 h” value [2] of the same compound?
A: 9 ± 4 s

Q: And the “Akinesia (steps) 2 h” value [3]?
A: 21 ± 3 steps

Q: Which “Catalepsy (sec) 2 h” value [1] does the source give for `CC(NC(C)(C)C)C(=O)c1cccc(Cl)c1` (stereo not shown) [Bupropion] here?
A: 123 ± 28 s

Q: What about the “Grasping test (sec) 2 h” value [2] of the same compound?
A: 16 ± 3 s

Q: And the “Akinesia (steps) 2 h” value [3]?
A: 29 ± 11 steps

Q: For `C[C@@H](N)Cc1ccccc1` [L-Amphetamine], which “Catalepsy (sec) 2 h” value [1] is on record?
A: 99 ± 36 s

Q: And the “Grasping test (sec) 2 h” value [2]?
A: 9 ± 3 s

Q: What about the “Akinesia (steps) 2 h” value [3] of the same compound?
A: 29 ± 5 steps

Q: With `N[C@@H](Cc1ccc(O)c(O)c1)C(=O)O` [L-DOPA] as the compound, how does the “forward locomotion (distance traveled)” value [8, 19] read?
A: effectively restored locomotion

Q: Which results are given for `N[C@H](C(=O)O)[C@H](O)c1ccc(O)c(O)c1` [L-DOPS, L-threo-3,4-dihydroxyphenylserine]?
A: ptosis score ([9]; 1 h after 100 mg/kg IP): 2.50±0.28; ptosis score ([9]; 1 h after 200 mg/kg IP): 0; ptosis score ([9]; 1 h after 400 mg/kg IP): 0; effect in tests of forward locomotion or akinesia and rigidity ([8]; DDD mice): none were effective

Q: With `CNC(C)Cc1ccc2c(c1)OCO2` (stereo not shown) [MDMA, 3,4-methylenedioxymethamphetamine] as the compound, how does the anticataleptic effect (haloperidol-treated rats) read?
A: potent anticataleptic effect

Q: What about the antiakinetic effects (6-OH-DA-lesioned rats) of the same compound?
A: antiakinetic effects

Q: And the antiakinetic effects (MPTP-treated monkeys)?
A: antiakinetic effects

Q: For `C[C@]12N[C@H](Cc3ccccc31)c1ccccc12` [MK-801], which “manifestations of akinesia and rigidity” value [4] is on record?
A: able to reduce rigidity

Q: And the “forward locomotion (distance traveled)” value [8, 19]?
A: not effective

Q: And the “forward locomotion (distance traveled)” value ([8]; DDD mice, drug 1 h after αMT 250 mg/kg IP, listed as ME-801)?
A: did not result in a significant increase in forward locomotion

Q: Which “effect in tests” value ([8]; DDD mice) does the source give for `COc1ccc2[nH]cc(C3=CCNCC3)c2c1` [RU24969] here?
A: none were effective

Q: With `CN1CCc2cccc3c2[C@H]1Cc1ccc(O)c(O)c1-3` [apomorphine] as the compound, how does the “forward locomotion (distance traveled)” value [8, 19] read?
A: induced locomotion

Q: What does the source list for `NCCc1ccccc1` [beta-phenylethylamine]?
A: forward locomotion (distance traveled) [8, 19]: did not induce forward locomotion; stereotypic reactions, such as headweaving and sniffing ([8]; DDD mice, high doses, with or without inhibition of MAO): did promote weak stereotypic reactions

Q: With `Cn1c(=O)c2c(ncn2C)n(C)c1=O` [caffeine] as the compound, how does the “forward locomotion (distance traveled)” value ([8]; mouse, in vivo) read?
A: not effective

Q: For `Clc1cccc(Cl)c1N=C1NCCN1` [clonidine], which “effect in tests” value ([8]; DDD mice) is on record?
A: none were effective

Q: Which “effects on akinesia and rigidity after pretreatment with D1 and D2 DA antagonists” value [4] does the source give for `C[C@H](N)Cc1ccccc1` [d-amphetamine] here?
A: did not prevent the effects

Q: And the “manifestations of akinesia and rigidity” value [4]?
A: effective in reducing manifestations of akinesia and rigidity

Q: And the “locomotor activation in DD mice” value (DD mice; 5 mg/kg, first treatment)?
A: induced potent locomotor activation

Q: And the “locomotor activation in DD mice” value (DD mice; second treatment 2 h later, same dose)?
A: failed to induce locomotion

Q: With `CN[C@@H](C)Cc1ccccc1` [d-methamphetamine] as the compound, how does the “manifestations of akinesia and rigidity” value [4] read?
A: effective in reducing manifestations of akinesia and rigidity

Q: For `C#CCN(C)[C@H](C)Cc1ccccc1` [deprenyl], which “potentiation of locomotor-stimulating effect of subthreshold L-DOPA/carbidopa” value ([8]; DDD mice, L-DOPA/carbidopa 10/10 mg/kg IP 15 min after drug, distance traveled for 2 h) is on record?
A: failed to potentiate

Q: For `CNCCCN1c2ccccc2CCc2ccccc21` [desipramine], which “effect in tests” value ([8]; DDD mice) is on record?
A: none were effective

Q: With `CNCCC(Oc1ccc(C(F)(F)F)cc1)c1ccccc1` (stereo not shown) [fluoxetine] as the compound, how does the “effect in tests” value ([8]; DDD mice) read?
A: none were effective

Q: For `CN1Cc2c(N)cccc2C(c2ccccc2)C1` (stereo not shown) [nomifensine], which “manifestations of akinesia and rigidity” value [4] is on record?
A: significantly reduced akinesia and rigidity

Q: What about the “activity at TA1 receptor” value (TA1 receptor) of the same compound?
A: can also potently activate TA1 receptor

Q: And the reversing catalepsy ([1]; DDD mice, cumulative treatment with 10 and 30 mg/kg IP)?
A: not effective

Q: What about the “forward locomotion (distance traveled)” value [8, 19] of the same compound?
A: not effective

Q: For `CCCN1C[C@H](CSC)C[C@@H]2c3cccc4[nH]cc(c34)C[C@H]21` [pergolide], which “forward locomotion (distance traveled)” value [8, 19] is on record?
A: induced locomotion

Q: Which “effects on akinesia and rigidity after pretreatment with D1 and D2 DA antagonists” value [4] does the source give for `CC(C)(N)Cc1ccccc1` [phentermine] here?
A: did not prevent the effects

Q: What about the “manifestations of akinesia and rigidity” value [4] of the same compound?
A: effective in reducing manifestations of akinesia and rigidity

Q: What does the source list for `CC(N)(Cc1ccc(O)cc1)C(=O)O` (stereo not drawn) [αMT, α-methyl-p-tyrosine]?
A: duration of the striatal DA depletion (DAT-KO mice [10]): up to 16 h; striatal DA remaining after depletion (DAT-KO mice [10]; 15 min): 5 % of control levels in DAT-KO mice; striatal DA remaining after depletion (DAT-KO mice [10]; DAT-KO mice, expressed against WT control): less than 0.2 % of WT control levels; depletion of striatal tissue DA (WT mice [11]): 60%; NE depletion in frontal cortex (DAT-KO mice [12]): about 60%; NE depletion in frontal cortex (WT mice [13]): about 60%; effect on extracellular DA levels in striatum (DAT-KO mice [7]; αMT 250 mg/kg IP, freely moving DAT-KO mice): essentially eliminated extracellular DA levels; effect on extracellular DA levels in striatum (WT mice [14]): only a partial decrease; consequences of chronic treatment (DAT-KO mice [15]): showed no negative consequences; time to restoration of locomotor activity (DAT-KO mice [16]; after αMT 250 mg/kg IP): 16 to 24 h; total distance traveled for 210 min after drug administration (DAT-KO mice [16]; αMT 250 mg/kg IP): 448±75 cm/210 min; total distance traveled for 210 min after drug administration (WT mice [17]): 505±98 cm/210 min; akinesia, catalepsy, grasping, bracing, tremor and ptosis tests (DAT-KO mice [18]): induced profound alterations; righting reflex (DAT-KO mice [18]): did not affect the righting reflex
